The record followed here is ChEMBL document CHEMBL1201862, “PubChem BioAssay data set” (2004).

Calls of active or inactive are those of the source.

The target in one test is Kallikrein-7 (Homo sapiens, UniProt P49862). The experiment in a line: Fluorescence Intensity-based biochemical primary high throughput dose response assay to identify activators of kallikrein-7 (K7) zymogen.
The target of test [1] is 1-phosphatidylinositol 4,5-bisphosphate phosphodiesterase gamma-1 (Homo sapiens, UniProt P19174). The experiment in a line: Counterscreen for inhibitors of phospholipase C isozymes (PLC-B3): Fluorescence-based biochemical high throughput dose response assay to identify inhibitors of phospholipase C isozymes (PLC-gamma1).
The target of test [2] is 1-phosphatidylinositol 4,5-bisphosphate phosphodiesterase beta-3 (Homo sapiens, UniProt Q01970). Description: Fluorescence-based biochemical high throughput dose response assay to identify inhibitors of phospholipase C isozymes (PLC-B3).
Test [3] is described as follows: OVCAR8 cell viability loss – plate reader, dry powder samples, PAX8 project, dose response (AID 743197). It counts as functional, cell-based. Conditions: OVCAR-8.
A short description of test [4]: toxicity toward immortalized ovarian surface epithelium – cell-based, plate reader, dry powder samples, cytotoxicity control for PAX8 inhibitor project, dose response (AID 743045). The format is functional.
Another test concerns the target Paired box protein Pax-8 (Homo sapiens, UniProt Q06710). Description: PAX8 transcriptional activity inhibition in RMG-I – RMG-I cells, luciferase, cherry-pick, dose response (AID 687027).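 Note: luciferase reporter driven by Pax8 target thyroperoxidase promoter measured by SteadyGlo luminescence.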 The format is functional, cell-based.
Test [5] in a line: OVCAR-3 cell viability loss – plate reader, dry powder samples, PAX8 inhibitor project, dose response (AID 743044). The format is functional, cell-based.

Chain of Kallikrein-7 (P49862 whole entry): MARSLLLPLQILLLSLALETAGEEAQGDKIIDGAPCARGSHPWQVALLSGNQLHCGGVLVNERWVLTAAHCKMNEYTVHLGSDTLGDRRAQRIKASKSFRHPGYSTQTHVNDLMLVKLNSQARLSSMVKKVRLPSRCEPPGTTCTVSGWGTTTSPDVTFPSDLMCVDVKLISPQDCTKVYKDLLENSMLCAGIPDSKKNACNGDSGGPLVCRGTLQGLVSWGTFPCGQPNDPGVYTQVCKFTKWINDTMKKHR
Chain of Paired box protein Pax-8 (Q06710 whole entry): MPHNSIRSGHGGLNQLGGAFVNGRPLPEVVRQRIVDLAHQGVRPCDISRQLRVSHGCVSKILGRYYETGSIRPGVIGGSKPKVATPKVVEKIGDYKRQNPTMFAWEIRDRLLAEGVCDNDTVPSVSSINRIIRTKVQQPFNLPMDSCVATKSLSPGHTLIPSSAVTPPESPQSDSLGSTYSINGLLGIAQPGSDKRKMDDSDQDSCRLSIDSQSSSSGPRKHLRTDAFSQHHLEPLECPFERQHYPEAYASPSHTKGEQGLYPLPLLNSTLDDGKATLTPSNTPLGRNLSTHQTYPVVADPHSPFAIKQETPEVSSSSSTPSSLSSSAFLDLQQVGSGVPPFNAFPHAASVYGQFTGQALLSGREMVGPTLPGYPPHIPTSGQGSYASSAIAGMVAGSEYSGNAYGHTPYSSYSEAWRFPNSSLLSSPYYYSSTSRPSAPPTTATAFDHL
Chain of 1-phosphatidylinositol 4,5-bisphosphate phosphodiesterase beta-3 (Q01970 whole entry): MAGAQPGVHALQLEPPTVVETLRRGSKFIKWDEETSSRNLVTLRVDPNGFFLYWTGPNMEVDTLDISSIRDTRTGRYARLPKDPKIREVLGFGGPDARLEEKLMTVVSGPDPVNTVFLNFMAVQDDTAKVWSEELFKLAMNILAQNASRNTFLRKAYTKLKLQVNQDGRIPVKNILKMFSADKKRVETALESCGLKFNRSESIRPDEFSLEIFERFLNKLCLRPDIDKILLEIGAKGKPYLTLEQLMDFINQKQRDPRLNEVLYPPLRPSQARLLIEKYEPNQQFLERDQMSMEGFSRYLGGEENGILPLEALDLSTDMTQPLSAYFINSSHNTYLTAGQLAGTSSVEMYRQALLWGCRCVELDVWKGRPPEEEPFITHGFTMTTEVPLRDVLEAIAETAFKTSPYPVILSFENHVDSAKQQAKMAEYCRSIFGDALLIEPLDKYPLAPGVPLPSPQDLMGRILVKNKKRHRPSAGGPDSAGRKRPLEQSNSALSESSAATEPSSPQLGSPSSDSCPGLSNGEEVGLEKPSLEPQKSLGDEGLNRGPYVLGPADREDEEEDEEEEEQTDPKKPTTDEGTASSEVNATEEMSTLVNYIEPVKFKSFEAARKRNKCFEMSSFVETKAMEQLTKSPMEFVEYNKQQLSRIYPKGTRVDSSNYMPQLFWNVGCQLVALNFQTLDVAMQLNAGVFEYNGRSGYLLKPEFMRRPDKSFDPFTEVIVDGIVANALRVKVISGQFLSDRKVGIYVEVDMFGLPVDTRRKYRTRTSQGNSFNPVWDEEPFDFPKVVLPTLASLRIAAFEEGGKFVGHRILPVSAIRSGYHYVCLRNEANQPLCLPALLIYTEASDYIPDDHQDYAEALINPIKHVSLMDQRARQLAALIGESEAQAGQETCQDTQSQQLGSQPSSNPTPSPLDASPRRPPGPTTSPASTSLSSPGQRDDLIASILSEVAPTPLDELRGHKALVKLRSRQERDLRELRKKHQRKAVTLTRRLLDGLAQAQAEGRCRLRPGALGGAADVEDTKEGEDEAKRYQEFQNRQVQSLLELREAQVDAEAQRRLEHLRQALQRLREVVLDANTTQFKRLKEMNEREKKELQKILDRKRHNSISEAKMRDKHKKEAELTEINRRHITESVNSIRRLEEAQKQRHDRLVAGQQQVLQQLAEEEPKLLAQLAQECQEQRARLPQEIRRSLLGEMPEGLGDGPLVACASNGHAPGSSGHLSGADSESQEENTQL
Chain of 1-phosphatidylinositol 4,5-bisphosphate phosphodiesterase gamma-1 (P19174 whole entry): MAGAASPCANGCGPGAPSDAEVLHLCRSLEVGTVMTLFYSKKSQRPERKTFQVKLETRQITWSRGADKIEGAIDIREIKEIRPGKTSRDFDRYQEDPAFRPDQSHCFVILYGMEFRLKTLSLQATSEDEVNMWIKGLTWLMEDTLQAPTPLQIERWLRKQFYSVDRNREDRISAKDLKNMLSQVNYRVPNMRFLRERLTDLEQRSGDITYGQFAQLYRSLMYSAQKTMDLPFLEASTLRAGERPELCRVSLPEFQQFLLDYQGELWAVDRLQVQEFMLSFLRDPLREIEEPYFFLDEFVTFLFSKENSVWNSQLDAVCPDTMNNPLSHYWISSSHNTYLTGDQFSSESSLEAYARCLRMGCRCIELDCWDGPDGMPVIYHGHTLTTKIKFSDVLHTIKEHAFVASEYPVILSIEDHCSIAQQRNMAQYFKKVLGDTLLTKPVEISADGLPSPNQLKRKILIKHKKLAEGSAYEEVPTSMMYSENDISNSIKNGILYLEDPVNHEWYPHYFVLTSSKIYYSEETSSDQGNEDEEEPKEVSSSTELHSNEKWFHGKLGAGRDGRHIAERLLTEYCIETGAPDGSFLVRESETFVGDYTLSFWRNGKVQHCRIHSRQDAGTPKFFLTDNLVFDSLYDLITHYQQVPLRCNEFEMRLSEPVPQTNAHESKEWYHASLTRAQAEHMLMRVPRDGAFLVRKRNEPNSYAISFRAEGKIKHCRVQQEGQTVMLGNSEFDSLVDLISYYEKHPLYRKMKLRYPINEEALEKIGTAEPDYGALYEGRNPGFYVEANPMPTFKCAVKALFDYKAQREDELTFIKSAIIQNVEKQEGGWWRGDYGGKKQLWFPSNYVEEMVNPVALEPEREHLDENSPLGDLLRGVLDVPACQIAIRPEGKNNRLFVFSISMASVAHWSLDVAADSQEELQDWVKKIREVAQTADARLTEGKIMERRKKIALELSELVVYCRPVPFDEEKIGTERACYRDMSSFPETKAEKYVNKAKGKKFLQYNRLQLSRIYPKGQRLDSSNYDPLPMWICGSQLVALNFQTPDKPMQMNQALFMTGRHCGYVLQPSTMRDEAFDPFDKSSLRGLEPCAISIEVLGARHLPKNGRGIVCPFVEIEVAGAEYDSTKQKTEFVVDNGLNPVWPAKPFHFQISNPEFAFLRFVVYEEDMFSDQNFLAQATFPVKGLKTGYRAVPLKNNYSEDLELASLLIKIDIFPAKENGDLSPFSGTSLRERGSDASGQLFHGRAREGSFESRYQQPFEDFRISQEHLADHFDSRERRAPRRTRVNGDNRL

As a reminder, the IC50 is the concentration needed to halve the response being measured. On to `Sc1nc2ccccc2n2c(S)nnc12`, for which the IC50 in the test “cells” is > 138 µM (inactive).
As usually defined, the EC50 is the concentration giving half of the maximal effect. In the case of `Cc1ccc2nc(NC(=O)c3ccc4ncsc4c3)sc2c1`, the EC50 at Kallikrein-7 was 20.8 µM (inactive).
Take `CC1=C(C(=O)OCc2ccc([N+](=O)[O-])cc2)N2C(=O)C(NC(=O)Cc3ccccc3)C2SC1` (centres undefined): the IC50 in test [1] was 30.8 µM (inactive); in test [2], > 122 µM (inactive).
In general, AC50 refers to the midpoint of the concentration-response curve, whichever way the signal moves. On to `COc1ccc(S(=O)(=O)Nc2ccc3c(c2)C(=O)N([C@H](C)CO)C[C@H](C)[C@H](CN(C)Cc2ccc(C(F)(F)F)cc2)OCCCC[C@H](C)O3)cc1`, for which the half-maximal activity concentration (AC50) is 31.6 µM (active) in test [3], 50.7 µM (active) in test [4], 9.51 µM (active) at Paired box protein Pax-8 and 22.9 µM (active) in test [5].
As to `CCCc1cc(NCCN(C)C)n2c(nc3ccccc32)c1C#N`, the EC50 on Kallikrein-7 is > 69.5 µM (inactive).
